Columns and labels:
[1] = both compounds in the free form; cited from earlier work
IL-2 = IL-2 activity of adherent PEC culture supernatants (IL-2 dependent CTCL-1 line); assay type: cell-based
Protocol: The purpose is to determine if the enhanced macrophage tumoricidal activity and NK activity detailed above correlates with increases in either IL-1 or IL-2.
(§1) The cells were cultured for 18 hours with the concentrations of LPS indicated below in Table 4.
The procedure used for assaying IL-2 has been described (Ehrke, 1986). Briefly, using a long term, IL-2 dependent cytolytic T cell line (CTCL-1), 10^4 cells in 0.1 ml were added to 0.1 ml volumes of conditioned media from adherent PEC cultures. The cells were incubated for 24 h and pulsed with [^3 H]Thd ([…]) 4 h before harvest. Results were expressed as the arithmetic mean of cpm dThd uptake ±S.D. A semipurified, rat IL-2 preparation was used as a positive control.

YAC-1 lymphoma cells [2] = assay: Splenic NK activity against YAC-1 cells (51Cr release); assay type: cell-based, mice
Protocol: Fresh spleen cells were added to ^51 Cr labeled YAC-1 cells at different effector to target cell ratios.

YAC-1 lymphoma cells [3] = assay: PEC NK activity with and without anti-Asialo GM1 antibody + complement; assay type: cell-based, mice; conditions: PEC 7 days after treatment; for NK activity, specific 51Cr release, Untreated: no antibody
Protocol: In order to verify that the effector cells in the PEC population that were active against YAC-1 cells had.NK properties, PECs were treated with anti-Asialo GMI antiserum and complement in vitro prior to the 4 hr toxicity assay for PECs.
Anti-Asialo GM1 antibody was added directly to PEC in the microwells at a final dilution of 1:20. After 30 min on ice the cultured effector cells were spun down, supernatant removed and the cells resuspended. Low toxicity rabbit complement was added (final dilution 1:20) and the cultures incubated for 45 min. After 3 washings, the PECs (5×10^5) were cultures with 10^4 radio-labeled YAC-1 cells, and radioactivity released was assayed after 4 hours.

L1210 leukemia cells = assay: Acute therapeutic effect (mean survival time) in mice injected i.p. with 10^6 L1210 leukemia cells, i.v. ADM; assay type: in vivo, DBA 2J mice; conditions: one day after L1210
Protocol: The day of death of the animals was recorded, and the mean survival time of each group was calculated. Each group contained from between 6 and 10 mice.

[4] = Acute and chronic toxicity (LD50) after single i.v. dose in healthy mice; conditions: mouse, in vivo, iv
Protocol: The toxicity of the three ADM preparations in Table 1 above was tested against healthy DMA 2J mice.
The data are expressed in terms of LD50, i.e. the dosage (in mg drug per kilogram of animal body weight) which produces death in half the animals receiving the drug. […] The number of mice available for determination of chronic toxicity (survival of acute toxicity) varied from between about 2 and 10 mice per group.

[5] = PEC ADM content by fluorescence after i.p. administration; assay type: in vivo, mice
Protocol: ADM was extracted from 10^6 PEC/sample by sonication in 36.5% HCl: absolute ethanol (1:11) in an ice bath for 5 min. This sonicated lysate was centrifuged (12,150×g) for 20 min at 4-6 C. The supernatant was measured for fluorescence at 468 nm excitation and 585 nm emission using a Perkin-Elmer (Model 650-10S) spectrofluorometer.

IL-1 = IL-1 like activity of adherent PEC culture supernatants (thymocyte comitogenic assay); assay type: cell-based, C3H/Hej mice
Protocol: as §1
A standard thymocyte comitogenic assay for IL-1 was used to test 18 h adherent PEC culture supernatants for IL1 like activity. Thymopytes (5×10^5) from C3H/Hej mice were added in 0.1 ml/well to flat bottom, 96 well plates. An equal volume of adherent PEC culture supernatant was added for a final volume of 0.2 ml. To facilitate a proliferative response, the media was supplemented with PHA ([…]) and 2-mercaptoethanol ([…]). Cultures were incubated for 72 h. Four hours before harvesting, the cultures were pulsed with [^3 H]dThd (New England Nuclear, 2 Ci/mole; […]).
Cells were harvested on glass fiber filters with an Otto Hiller cell harvester. The radioactivity was measured by scintillation counting using a Beckmann counter (Model LS 7000). Thymidine uptake by the thymocytes was expressed as mean cpm±S.D.

In the case of `Cc1c(C)c2c(c(C)c1O)CCC(C)(CCCC(C)CCCC(C)CCCC(C)C)O2` (stereo not drawn) [alpha-tocopherol (vitamin E), alpha-tocopherol], the “cardiotoxicity of ADM (in words)” value [1] is given as “reduce the cardiotoxicity of ADM in animals”.

For `COc1cccc2c1C(=O)c1c(O)c3c(c(O)c1C2=O)C[C@@](O)(C(=O)CO)C[C@@H]3O[C@H]1C[C@H](N)[C@H](O)[C@H](C)O1` [free ADM, doxorubicin], the “IL-2 activity (dThd uptake)” value (IL-2; LPS 0 ng/ml) was 285 ± 86 cpm, the “IL-2 activity (dThd uptake)” value (IL-2; LPS 0.001-1000 ng/ml) was 286 ± 74 cpm and the “IL-2 activity (in words)” value (IL-2; with or without LPS activation) was “about background”. The “duration of suppression of splenic NK (in words)” value (YAC-1 lymphoma cells [2]) was “transient”, the “splenic NK suppression (in words)” value (YAC-1 lymphoma cells [2]; 7 or 11 days before sacrifice) was “suppression was not observed” and the “splenic NK activity (in words)” value (YAC-1 lymphoma cells [2]; 4 days following treatment) was “reduced”. For the same compound, the “NK activity, specific 51Cr release, Asialo GM1 Antibody + Complement” value (YAC-1 lymphoma cells [3]; Exp. No. 1) was 3.4 ± 0.9%, the “NK activity, specific 51Cr release, Untreated” value (YAC-1 lymphoma cells [3]; Exp. No. 1) was 16.9 ± 2.6% and the “NK activity, specific 51Cr release, Asialo GM1 Antibody + Complement” value (YAC-1 lymphoma cells [3]; Exp. No. 2) was 0.2 ± 0.8%. The “NK activity, specific 51Cr release, Untreated” value (YAC-1 lymphoma cells [3]; Exp. No. 2) was 18.9 ± 1.4%, the “Mean Survival Time ± S.D.” value (L1210 leukemia cells; 10 mg/kg ADM) was 18.4 ± 1.8 days and the “Mean Survival Time ± S.D.” value (L1210 leukemia cells; 20 mg/kg ADM) was 12.2 ± 1.6 days. The LD50 at 2880 h ([4]; death between 50 and 120 days, read-out: Mean LD50 ± S.D., chronic) was 12 ± 5 mg/kg, the LD50 at 336 h ([4]; death within 14 days, read-out: Mean LD50 ± S.D., acute) was 20 ± 5 mg/kg and the “ADM Equivalents in PEC” value ([5]; Day 4, i.p.) was 4.2 ± 0.5 ng ADM/10^6 PECs. The “ADM Equivalents in PEC” value ([5]; Day 7, i.p.) was 1.4 ± 0.4 ng ADM/10^6 PECs, the “ADM Equivalents in PEC” value ([5]; Day 11, i.p.) was 0.2 ± 0.2 ng ADM/10^6 PECs and the “IL-1 activity (thymidine uptake by thymocytes)” value (“IL-1 activity” for short) (IL-1; LPS 0 ng/ml) was 9142 ± 1179 cpm. The “IL-1 activity” value (IL-1; LPS 0.001 ng/ml) was 9693 ± 230 cpm, the “IL-1 activity” value (IL-1; LPS 0.1 ng/ml) was 11588 ± 953 cpm and the “dependence of IL-1-like activity on LPS (in words)” value (IL-1; LPS 0.001 to 1,000 ng/ml) was “no significant increase in this activity from ADM PEC was observed with LPS exposure”.
